Laboratory results published in publication PMC10541456, “A phase I, single‐center, open‐label study to investigate the absorption, distribution, metabolism and excretion of encorafenib following a single oral dose of 100 mg [ ^14C] encorafenib in healthy male subjects” (Pharmacology Research & Perspectives, 2023).

Legend:
[1] = Metabolite profiles in plasma (UPLC, radioactivity detection, MS); type: in vivo, human
Method: To the thawed plasma samples (1.5 mL plasma/ time points) two volumes of ice‐cold acetonitrile:ethanol:acetic acid (90:10:0.1, v/v) were added, followed by vortex mixing (10 min) and sonication (10 min). After centrifugation, the supernatants (4.2 mL) were evaporated to near dryness under a gentle stream of nitrogen on a TurboVap LV (Zymark Corp.). The residues were reconstituted in 80 μL of methanol:water:acetic acid (50:50:0.1, v/v) and 45 μL were injected into the ultra‐performance liquid chromatography (UPLC) system with off‐line radioactivity detection.
(§1) Characterization and quantification of the metabolites of encorafenib in select human plasma and excreta samples were performed by the Department of DMPK (Drug Metabolism and Pharmacokinetics) at the Novartis Institutes for Biomedical Research (East Hanover, NJ, USA) using liquid chromatography (LC) coupled to radioactivity detectors and mass spectrometers (MS).
(§2) The analytical system consisted of a Waters ACQUITY UPLC system (Waters), equipped with a Phenomenex Luna PFP column (3 μm, 4.6 × 150 mm) (Phenomenex) and a guard column of the same phase, both maintained at a temperature of 30°C. The mobile phases consisted of 10 mM ammonium acetate containing 0.1% formic acid (v/v) (solvent A) and CH3CN (solvent B). The total run time was 80 min. A linear gradient elution program was used with a flow rate of 1 mL/min as described in Table 1.
(§3) The UPLC effluent was split 4:1, with […] of the total flow introduced to the mass spectrometer for mass spectral analysis and the remaining flow used for radioactivity detection.
For off‐line radioactivity detection, the eluant was collected into 96‐well Lumaplate (Packard Instrument Co) microplates using a Collect Pal fraction collector (Leap Technologies) with a collection time of 10 seconds per well. The LumaPlates were sealed after drying and counted for 10–50 min per well on a Packard Topcount microplate scintillation counter. The structural characterization of metabolites was carried out using the above UPLC profiling method coupled to a two‐channel Z‐spray (LockSprayTM) time‐of‐flight mass spectrometer (Synapt MS). Leucine enkephalin was used as the mass reference standard for exact mass measurements and was delivered via the second spray channel at a flow rate of 5 μL/minute. The mass spectrometer was operated at a resolution of ~10 000 m/ΔmFWHM with spectra being collected from 100 to 1000 amu. The ionization technique employed was positive electrospray. The sprayer voltage was kept at 3100 V and the sampling cone voltage was kept at a potential of 20 V. For the time‐of‐flight MS/MS experiments, trap energies of 25 to 45 eV and transfer energy of 15 eV were used with argon as the collision gas.
(§4) All radioactivity data were transferred to Laura software (version 4.2.2.24, Lab Logic Ltd, UK) to generate and integrate radio‐chromatograms. Radioactive peaks for quantitative analysis were manually selected from the plots. The radioactivity in the region encompassing the beginning and end of the peak was summed. All further calculations were based on radioactivity.
(§5) The percent of radioactivity (%RA) in a particular peak, Z, was calculated as follows in Equation (1): (1) %RAinZ=DPMin PeakZ/totalDPMinallintegrated peaksx100
(§6) The concentration or amount of each component was calculated as % RA (expressed as a fraction) multiplied by the total concentration of radioactivity in plasma, or the percent of dose in the excreta.

[2] = Metabolite profiles in excreta (urine, feces); type: in vivo, human
Method: A pool of equal percent volume of urine (0–48 h) was prepared for each subject. An aliquot (1.5 mL) of the pooled sample was concentrated ~7‐fold by reducing the volume under nitrogen and then combined with 50 μL methanol:water:acetic acid (50:50:0.1; v/v) followed by centrifugation at 3500 rpm (~1000 × g) for 10 min. The aliquot was then injected onto the UPLC system with off‐line radioactivity detection.
A pool of approximately equal percent by weight of feces (from 0–96 h or 0–120 h) was prepared for each subject. Feces samples were extracted two times with 2 equivalent volumes of acetonitrile: each time with 10 min of vortexing, 10 min of sonication, and centrifugation at 3500 rpm (~1000 × g) for 10 min. An aliquot of the combined supernatant was concentrated approximately 5‐fold by evaporating to dryness under nitrogen and reconstituting in methanol:water:acetic acid (50:50:0.1, v/v) 45 μL of the concentrated, reconstituted samples was injected onto the UPLC system with off‐line radioactivity detection.
as §1, §2, §3
For off‐line radioactivity detection, the eluant was collected into 96‐well Lumaplate (Packard Instrument Co) microplates using a Collect Pal fraction collector (Leap Technologies) with a collection time of 10 seconds per well. The LumaPlates were sealed after drying and counted for 10–50 min per well on a Packard Topcount microplate scintillation counter. The structural characterization of metabolites was carried out using the above UPLC profiling method coupled to a two‐channel Z‐spray (LockSprayTM) time‐of‐flight mass spectrometer (Synapt MS). Leucine enkephalin was used as the mass reference standard for exact mass measurements and was delivered via the second spray channel at a flow rate of 5 μL/minute. […]
as §4, §5, §6

[3] = Stability in simulated gastric and intestinal fluid; type: in vitro ADME; conditions: 37°C, relative to time = 0 h
Method: Simulated gastric fluid (SGF) was generated by mixing 2.0 g of sodium chloride and 3.2 g of purified pepsin, which is derived from porcine stomach mucosa, with an activity of 800 to 2500 units per mg of protein, in 7.0 mL of hydrochloric acid and sufficient water to make 1000 mL. The final test solution has a pH of about 1.2. Simulated intestinal fluid (SIF) was generated by dissolving 6.8 g of monobasic potassium phosphate in 250 mL of water and adding 77 mL of 0.2 N sodium hydroxide and 500 mL of water. To this mixture, 10.0 g of pancreatin was added and the solution pH was adjusted with either 0.2 N sodium hydroxide or 0.2 N hydrochloric acid to a pH of 6.8 ± 0.1 and diluted with water to a final volume of 1000 mL. Encorafenib was dissolved in SGF (100 μM final encorafenib concentration) and incubated for 1 h or SIF (1 μM final encorafenib concentration) for 3 h. Dilutions are prepared in HPLC vials by combining 20 μL of the test compound in DMSO with 180 μL of the specified assay media. Separate dilutions are prepared for each time point per media. The media is mixed by repeated pipetting, vortexed and incubated at 37°C. At the specified time period and equal volume of cold ACN is added to the vial to precipitate the protein and quench any enzymatic activity. […] Stability is calculated as % remaining relative to the T = 0 peak area.

CYP3A4 = system: CYP3A4; parameters: method as in earlier work; conditions: cited from earlier work
CYP2D6 = system: CYP2D6; parameters: method as in earlier work; conditions: cited from earlier work
[4] = parameters: method as in earlier work; conditions: cited from earlier work

Mean (range) Circulating Radioactivity in Plasma Based on AUC0-24 ([1]; 100 mg oral [14C] encorafenib): 4400 (2340–7140) ngEq/mL*h
Mean (range) Circulating Radioactivity in Plasma Based on AUC0-24 (%) ([1]; M12.8 value is sum of M12.8 and M13.2): 27.5%
Mean (range) Circulating Radioactivity in Plasma Based on AUC0-24 (%) ([1]; M12.8 value is sum of M12.8 and M13.2, listed as Encorafenib (LGX818)): 27.5 (17.9–36.4) %
Metabolism as clearance pathway, share of the recovered radioactive dose ([2]; humans): ~ 88%
CLr as share of the glomerular filtration rate (7.5 L/h) ([2]; in vivo): 7%
CL renal ([2]; male, human, urine and plasma, oral, 100 mg, amount in urine divided by mean plasma AUCinf, read-out: Renal clearance (CLr), estimated mean (converted)): 8.33 mL/min
Percentage remaining in SIF with pancreatin ([3]; 3-h incubation, 1 μM, pH 6.8): approximately 97%
Percentage remaining in SGF with pepsin ([3]; 1 h incubation, 100 μM, pH about 1.2): approximately 101%
Compound: COC(=O)N[C@@H](C)CNc1nccc(-c2cn(C(C)C)nc2-c2cc(Cl)cc(NS(C)(=O)=O)c2F)n1 [encorafenib]
Component in feces, average ([2]; feces pool 0–96 h or 0–120 h, average of four subjects): 5.0 % of the administered radioactive dose
Component in urine, average ([2]; urine pool 0–48 h, average of four subjects): 1.8 % of the administered radioactive dose
Contribution of CYP3A4 to metabolism (CYP3A4): 83%
Contribution of CYP2D6 to metabolism (CYP2D6): 1%
Dose proportionality of systemic exposure ([4]; after a single dose, dose range 50 mg to 700 mg): dose‐proportional
Variability of apparent oral clearance, encorafenib labeling [4]: 54%
